Reference: US10028955B2, “FGFR inhibitor for use in the treatment of hypophosphatemic disorders” (Novartis AG, priority 2012, dated 2018)
“Also recorded” adds a separate entry of the source.

Tests used:
Format in all cases: in vivo, mouse
Hyp mice [1] = assay: Long-term (8 weeks, 3 qw) treatment of Hyp mice: bone radiography, micro-CT, histology/histomorphometry; settings: 50 mg/kg 3 qw for 56 days
Protocol: Radiographs of femur and tibia were taken ex vivo using a high-resolution radiography system (Faxitron MX-20). μCT measurements were performed ex vivo using a Scanco vivaCT 40 system (voxel size 6 μm; high resolution). For cancellous and cortical bone analyses a fixed threshold of 200 was used to determine the mineralized bone fraction from 50 slices. A Gaussian filter was applied to remove noise (σ=0.7; support=1).
As shown on FIG. 7 long-term FGFR inhibition enhances growth of long bones in Hyp mice. Taken together, these above results illustrate the beneficial effect of pharmacological FGFR inhibition in the context of aberrant FGF23 signaling and indicate a potential alleviation of the bone formation deficiency of Hyp mice. […] On FIG. 7.: Radiographs of femur (FIG. 7A) and tibia (FIG. 7B) from wild-type or Hyp mice treated with the FGFR inhibitor BGJ398 (50 mg/kg) or vehicle 3 qw for 56 days. Quantification of femoral (FIG. 7C) and tibial (FIG. 7D) length. Data are shown as average with SEM (n≥6). Data were compared by unpaired Student's t test; * p<0.05; ** p<0.01; *** p<0.001; n. s.: not significant.
Long-term FGFR inhibition improves cortex integrity in femoral bone of Hyp mice. To determine the effect of FGFR inhibitor treatment on bone structure in more detail, we performed microcomputed tomography (CT) analyses of the femoral cortex (sub growth plate area) from wild-type or Hyp mice treated with the FGFR inhibitor BGJ398 (50 mg/kg) or vehicle 3 qw for 56 days (FIG. 8A). Further relative cortical bone volume was quantified (FIG. 8B) and average cortex thickness determined (FIG. 8C).
Long-term treatment with BGJ398 restores growth plate organization Hyp mice. we also found an ameliorative effect of BGJ398-treatment on growth plate organization in Hyp mice in tibial histological sections (FIG. 9A). […] Mineralized tissue is indicated by white arrows, unmineralized osteoid is visualized by dark grey (indicated by black arrows). Growth plate structure is shown by light grey staining in the central part of the sections (FIG. 9B). Osteoid surface/bone surface and osteoid width (FIG. 9C) determined by histomorphometry in the tibial epiphysis of wild-type or Hyp mice treated with BGJ398 (50 mg/kg) or vehicle 3 qw for 56 days. Data are shown as average with SEM (n≥6). Data were compared by unpaired Student's t test; * p<0.05; ** p<0.01; *** p<0.001. In vehicle-treated Hyp mice the columnar organization and directional growth of chondrocytes was disturbed in contrast to the highly ordered structure in wild-type mice. In addition, mineralization was impaired in control Hyp mice, as indicated by the abundance of unmineralized osteoid.

[2] = test system: renal FGF23 target genes Cyp27b1 and Cyp24a1; assay: Renal FGF23 target gene expression (qPCR) after single oral dose in wild-type and Hyp mice; settings: both wild-type and Hyp mice, single oral dose 50 mg/kg, 7 h
Description: (§1) FGFR inhibitor treatment induces 1,25(OH)2D3 biosynthesis and alleviates hypocalcemia and hypophosphatemia in Hyp mice. Wild-type C57BL/6 and Hyp (B6.Cg-PhexHyp/J) mice were obtained from The Jackson Laboratory. Dmp1-null mice were generated by Feng et al. (J. Dent. Res. 2003; 82:776-780.). All mice were kept in cages under standard laboratory conditions. Mice were fed on a standard rodent diet with water ad libitum.
Wild-type or Hyp mice received a single oral dose of the FGFR inhibitor BGJ398 in its free base form (50 mg/kg) or vehicle and were studied 7 h after administration of the compound. BGJ398 or vehicle only (PEG-300/Glucose 5%, 2:1 mix) was administered by oral gavage. Mice were used at 5-7 weeks of age in the case of single dose administrations. […] Concentrations of BGJ398 in kidney at 7 h was also determined. […]
Gene expression was analyzed by quantitative real-time PCR (qPCR). […] Quantitative real-time PCR was performed in an iQ5 Real-Time PCR Detection System using a qPCR core kit for probe assay and an equivalent of 40 or 80 ng RNA of each sample. […]
FGF23 exerts its hypophosphatemic functions in part by transcriptional regulation of the 1,25(OH)2D3-metabolizing enzymes CYP27B1 and CYP24A1 in the kidney. We therefore monitored renal Cyp27b1 and Cyp24a1 expression upon single dose treatment with BGJ398 in Hyp mice and wild-type littermates.

Hyp mice [3] = assay: Serum 1,25(OH)2D3, calcium and phosphate after single oral dose in wild-type and Hyp mice
Description: as §1
Wild-type or Hyp mice received a single oral dose of the FGFR inhibitor BGJ398 in its free base form (50 mg/kg) or vehicle and were studied 7 h after administration of the compound. BGJ398 or vehicle only (PEG-300/Glucose 5%, 2:1 mix) was administered by oral gavage. Mice were used at 5-7 weeks of age in the case of single dose administrations. Mice were anesthetized by isoflurane inhalation and blood was collected from the caval vein. Mice were sacrificed by exsanguination and kidney and tibial and femoral bones were obtained. Concentrations of BGJ398 in kidney at 7 h was also determined.
(§2) Serum was separated from whole blood using clot activator centrifugation tubes. 100 μl of serum were used for determination of phosphate and calcium levels using the VetScan diagnostic profiling system. Serum concentrations of 1,25(OH)2D3 were determined using a radio receptor assay kit. FGF23 serum levels were analyzed by an ELISA detecting intact FGF23 (Kainos).
At 24 h post-dosing, single dose treatment with BGJ398 induced elevated serum calcium and phosphate levels in both wild-type and Hyp mice, thus alleviating the severe hypocalcemia and hypophosphatemia observed in control Hyp mice. […] Data in FIGS. 1 A and B is shown as relative levels to the wild-type control group (relative expression of 100) and are given as average with standard errors of the mean (SEM) (n≥6).
Similarly to example 1, wild-type or Hyp mice received a single oral dose of the FGFR inhibitor BGJ398 or vehicle and were studied […] after administration of the compound. Calcium (FIG. 4A) and phosphate (FIG. 4B) levels were determined from serum. Data are shown as average with SEM (n≥3). Data were compared by unpaired Student's t test; * p<0.05; ** p<0.01; *** p<0.001; n. s.: not significant. (C) BGJ398 concentrations in kidney at 7 h and 24 h post-administration. Values are given as average with SEM (n≥5).

Dmp1-null mice = assay: Serum calcium and phosphate after single oral dose in Dmp1-null mice; settings: single oral dose 50 mg/kg, 24 h post-administration
Description: as §1
For analysis of calcium and phosphate levels mice received a single oral dose of the FGFR inhibitor BGJ398 (50 mg/kg) or vehicle and were studied 24 h post-administration. Phosphate and calcium levels were determined from serum. As for Hyp mice, pharmacological FGFR inhibition led to increased serum calcium and phosphate levels in Dmp1-null mice (FIGS. 2C and D, respectively). Data in FIG. 2 are shown as average with SEM (n≥6). Data were compared by unpaired Student's t test; * p<0.05; ** p<0.01; *** p<0.001; n. s.: not significant.

FGF23 = FGF23 bone mRNA and serum levels after single oral dose in wild-type and Hyp mice; settings: single oral dose 50 mg/kg, 7 h post-dosing
Protocol: Kidneys were sampled, total RNA was isolated. For RNA isolation from mouse tibial and femoral bones, epiphyses were cut off and bone marrow was removed by centrifugation at 4° C. Tissue was homogenized using a Precellyis 24 bead homogenizer and RNA was extracted with TRIzol reagent. RNA was purified subsequently by chloroform extraction, isopropanol precipitation and RNeasy Mini kit. For kidney RNA, approximately 60 mg of tissue was homogenized in 1.5 ml RTL buffer (Qiagen) with a rotor-stator homogenizer and RNA was purified with the RNeasy Mini kit. Random hexamer primed cDNA was synthesized with 0.5-2 μg RNA and MultiScribe MuLV reverse transcriptase.
Gene expression was analyzed by quantitative real-time PCR (qPCR). TaqMan Probe-Based Gene Expression assays were used for expression analysis of mouse Cyp27b1 (Mm01165919), Cyp24a1 (Mm00487244) and Gapdh (4352339E). Sequences of primers and FAM/TAMRA-labeled probes (Microsynth) for the detection of mouse Fgf23 were 5′-[…] (forward), 5′-[…] (reverse) and 5′-[…] (probe). Quantitative real-time PCR was performed in an iQ5 Real-Time PCR Detection System using a qPCR core kit for probe assay and an equivalent of 40 or 80 ng RNA of each sample. The data were normalized to Gapdh expression.
as §2
Besides the alleviation of the mineral ion deficiency in the two mouse models for FGF23-related hypophosphatemic rickets, we also noticed a repressive effect of FGFR inhibitor treatment on FGF23 levels in BGJ398-treated Hyp mice. Mice received a single oral dose of the FGFR inhibitor BGJ398 (50 mg/kg) or vehicle and were studied 7 h post-administration. FGF23 bone mRNA (FIG. 3A) and serum (FIG. 3B) levels in wild-type and Hyp mice treated with BGJ398 were determined. […]

Hyp mice [4] = assay: Long-term (8 weeks, 3 qw) treatment of Hyp mice: body weight, tail length, serum parameters; settings: 50 mg/kg 3 qw for 56 days
Protocol: as §2
Long-term FGFR inhibition enhances body weight and tail length development and restores mineral ion homeostasis in Hyp mice. A long-term treatment studies was performed to monitor a potential amelioration of the rickets-like bone phenotypes of the Hyp mouse model. Treatments were performed over a course of 8 weeks. Owing to the persistence of elevated calcium and phosphate levels—extending beyond the clearance of BGJ398 from the kidney (FIG. 4)—mice were treated three times weekly (3 qw) with BGJ398 (50 mg/kg body weight) or vehicle for 56 days and analyzed similarly as explained above. […] Total body weight (FIG. 5B) and tail length gain (FIG. 5D) over the course of the treatment are depicted in FIG. 5 as well. Calcium (FIG. 5E) and phosphate (FIG. 5F) levels at the end of the 8 week treatment were determined from serum 24 h after the last administration and are shown in FIG. 5. Data are shown as average with SEM (n≥6). Data were compared by unpaired Student's t test; * p<0.05; ** p<0.01; *** p<0.001; n. s.: not significant.
Wild-type or Hyp mice were treated again with the FGFR inhibitor BGJ398 (50 mg/kg) or vehicle 3 qw for 56 days and FGF23 (FIG. 6A), parathyroid hormone (PTH) (FIG. 6B) and 1,25(OH)2D3 (FIG. 6C) levels were determined from serum at 24 h after the last dosing. PTH values were determined by separating the serum from whole blood using clot activator centrifugation tubes (Sarstedt). 20 μl of serum were used for determination PTH levels using a mouse PTH ELISA (Immutopics). Data were compared by unpaired Student's t test; * p<0.05; ** p<0.01; *** p<0.001; n. s.: not significant.

[5] = Hyp mice, single oral dose 50 mg/kg, 24 h post-dosing
[6] = both wild-type and Hyp mice, single oral dose 50 mg/kg, 24 h post-dosing, 50 mg/kg
[7] = wild-type or Hyp mice, single oral dose, 48 h after administration
[8] = Hyp mice, 24 h after last administration
[9] = Hyp mice, 24 h after last dosing

CCN1CCN(c2ccc(Nc3cc(N(C)C(=O)Nc4c(Cl)c(OC)cc(OC)c4Cl)ncn3)cc2)CC1 [BGJ398, 3-(2,6-Dichloro-3,5-dimethoxy-phenyl)-1-{6-[4-(4-ethyl-piperazin-1-yl)-phenylamino]-pyrimid-4-yl}-1-methyl-urea]
femoral cortex integrity (micro-CT) (Hyp mice [1]): appeared intact | mineralization in the epiphyseal bone area adjacent to the growth plate (Hyp mice [1]): enhanced mineralization | primary spongiosa in the metaphyseal sub-growth plate area (Hyp mice [1]): formation of primary spongiosa | widening of femoral and tibial growth plate areas (Hyp mice [1]): partially alleviate | growth plate organization (tibial sections, Goldner staining) (Hyp mice [1]; 50 mg/kg): striking re-organization of the growth plate area | femur length (radiography) (Hyp mice [1]; vs vehicle Hyp): significant elongation | tibia length (radiography) (Hyp mice [1]; vs vehicle Hyp): significant elongation | osteoid width (Hyp mice [1]; epiphyseal, metaphyseal and cortical bone compartments): strong reduction | relative cortical bone volume (Hyp mice [1]; femoral cortex, 50 mg/kg): increases from pathological values to indistinguishable with normal values; also recorded: indistinguishable from wild-type mice | average cortex thickness (Hyp mice [1]; femoral cortex, vs vehicle Hyp, 50 mg/kg): significantly increased compared to vehicle-treated Hyp mice | Osteoid surface/bone surface (OS/BS ratio) (Hyp mice [1]; histomorphometry): attenuation of the increased OS/BS ratio | columnar stacks of chondrocytes (Hyp mice [1]; tibial sections): re-formation | height of the proliferative zone (Hyp mice [1]; tibial sections): increased height | renal Cyp24a1 expression [2]: almost complete loss of Cyp24a1 expression | renal Cyp27b1 expression [2]: increased Cyp27b1 levels | serum calcium levels compared to vehicle-treated wild-type mice (Hyp mice [3]; [5]): indistinguishable from vehicle-treated wild-type mice | serum phosphate concentrations compared to wild-type mice (Hyp mice [3]; [5]): still significantly lower compared to serum levels of wild-type mice | 1,25(OH)2D3 serum levels (Hyp mice [3]; both wild-type and Hyp mice, single oral dose 50 mg/kg, 7 h post-dosing): strong increase | serum calcium levels (Hyp mice [3]; [6]): increased; also recorded: elevated | serum phosphate levels (Hyp mice [3]; [6]): increased; also recorded: elevated | calcium serum levels (Hyp mice [3]; [7]): persistent increase | phosphate serum levels (Hyp mice [3]; [7]): persistent increase | serum calcium levels (Dmp1-null mice): increased | serum phosphate levels (Dmp1-null mice): increased | reduction of serum FGF23 levels (FGF23; Hyp mice): approximately 50% | FGF23 expression in bone (mRNA) (FGF23; both Hyp and wild-type mice): almost abolished | serum FGF23 levels (FGF23; wild-type mice): undetectable | serum calcium levels (Hyp mice [4]; [8]): complete normalization | serum phosphate levels (Hyp mice [4]; [8]): complete normalization | FGF23 serum concentrations (Hyp mice [4]; [9]): further increase | PTH levels (serum) (Hyp mice [4]; [9]): normalization | tail length development (Hyp mice [4]; Hyp mice, vs control Hyp): much stronger increase in tail length compared to control Hyp mice | body weight development (Hyp mice [4]; Hyp mice, vs vehicle Hyp): stronger increase in body weight compared to the vehicle control group | tail length gain (Hyp mice [4]; Hyp mice, vs vehicle wild-type): significantly higher compared to vehicle-treated wild-type littermates | 1,25(OH)2D3 serum levels (Hyp mice [4]; wild-type or Hyp mice, 24 h after last dosing): not significantly different among the treatment groups
